Assay results published in PubChem BioAssay (NCI).
Where “and” joins values, the source holds several entries; their conditions need not be identical. Equal entries are not always repeated.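 Cultured in 96-well plates, cells were exposed to test compound for 48 hours across five concentrations. The concentration for 50% growth inhibition is given as GI50. TGI is the concentration that stops growth completely.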

Columns and labels:
Test in all cases: inhibition of tumour cell growth, NCI panel, 48 h
[1] = test system: A549 NSCLC
[2] = test system: ACHN renal
[3] = test system: HT29 colon
[4] = test system: LOX IMVI melanoma
[5] = test system: MCF7 breast
[6] = test system: MDA-MB-435
[7] = test system: OVCAR-8 ovarian
[8] = test system: RPMI-8226 leukemia
[9] = test system: SK-MEL-5 melanoma
[10] = test system: UACC-62 melanoma

Row | Compound | GI50 [1] | TGI [1] | GI50 [2] | GI50 [3] | TGI [3] | GI50 [4] | TGI [4] | TGI [5] | TGI [6] | GI50 [7] | TGI [7] | TGI [8] | GI50 [9] | TGI [9] | GI50 [10] | TGI [10] | TGI [2] | GI50 [5] | GI50 [6] | GI50 [8]
1 | C[C@@H]1C[C@@H](O)[C@]2(O)O[C@@H]3C[C@@]4(C=O)[C@@H](CC[C@@H]5[C@@H]4CC[C@]4(C)[C@@H](C6=CC(=O)OC6)CC[C@]54O)C[C@H]3O[C@@H]2O1 | 0.0146 µM | 0.0117 µM and 0.0413 µM | 0.00692 µM and 0.005 µM | 0.0534 µM and 0.0141 µM | 0.0734 µM and 0.198 µM and 0.0745 µM | 0.0472 µM | 0.0624 µM and 0.165 µM and 0.0884 µM | 0.16 µM | 0.157 µM | 0.0393 µM and 0.0143 µM | 0.057 µM and 0.13 µM and 0.116 µM | 0.0752 µM | 0.0247 µM | 0.0303 µM and 0.055 µM and 0.0584 µM | 0.0515 µM and 0.0216 µM | 0.0465 µM and 0.213 µM and 0.0895 µM | – | – | – | –
2 | COC(=O)N[C@H]1CCc2c(Br)c(OC)c(OC)c(OC)c2-c2ccc(SC)c(=O)cc21 | < 0.01 µM | > 52.6 µM | < 0.01 µM | < 0.01 µM | 18.8 µM | < 0.01 µM | 12 µM | 12.4 µM | < 0.01 µM | < 0.01 µM | > 77.2 µM | 5.84 µM | < 0.01 µM | 0.0182 µM | < 0.01 µM | 18 µM | 25.4 µM | < 0.01 µM | < 0.01 µM | < 0.01 µM
3 | COc1ccc2c(c1)/C(=C\c1c(C)nc3sc(C)cn13)C(=O)N2C | 30.7 µM | > 100 µM | 4.82 µM | 3.27 µM | 19.2 µM | 4.4 µM | 26.2 µM | 35.4 µM | 5.72 µM | 6.14 µM | > 100 µM | > 100 µM | 2.15 µM | 5.49 µM | 1.69 µM | 10 µM | 62.7 µM | 3.29 µM | 1.51 µM | 4.75 µM
4 | COc1ccc2c(c1)[nH]c(=O)c1c3cc(C)c(C)cc3cn21 | < 0.0185 µM | 1.32 µM | < 0.0173 µM | < 0.01 µM | – | < 0.014 µM | 1.66 µM | 1.16 µM | – | < 0.0179 µM | 1.48 µM | 0.0656 µM | < 0.0158 µM | 0.0763 µM | < 0.0204 µM | 5.32 µM | 1.58 µM | 0.0927 µM | < 0.01 µM | < 0.01 µM
5 | N#CCC1COc2ccccc2O1 (centres undefined) | – | > 10 µM | – | – | > 10 µM | – | > 10 µM | > 10 µM | > 10 µM | – | > 10 µM | > 10 µM | – | > 10 µM | – | > 10 µM | > 10 µM | – | – | –
6 | C=CCn1c2c(c3ccccc3c1=O)C(=O)c1ccccc1-2 | – | > 100 µM | – | – | > 100 µM | – | > 100 µM | > 100 µM | > 100 µM | – | > 100 µM | > 100 µM | – | > 100 µM | – | > 100 µM | > 100 µM | – | – | –
7 | CN1CCN(CN2C(=O)C3C4C=CC(C3C2=O)C2C3C(=O)N(CN5CCN(C)CC5)C(=O)C3C42)CC1 (centres undefined) | – | 90.5 µM and 57.5 µM and 36.2 µM | – | – | > 100 µM | – | 35.5 µM and 37.4 µM and 33.8 µM | > 100 µM | 31.3 µM | – | 35.7 µM and > 65.3 µM and 59.9 µM | 59.2 µM and 53.2 µM and 71.5 µM | – | 31 µM and > 58.5 µM and 68.7 µM | – | 43.3 µM and 37.1 µM and 58.7 µM | 73.6 µM and > 61.3 µM and 48.5 µM | – | – | –
8 | COc1cc(/C(C#N)=C/c2ccc3c(c2OC)OCO3)cc2c1OCO2 | 0.0879 µM | > 100 µM | 2.43 µM | 0.0379 µM | 1.04 µM | 0.07 µM | 20.3 µM | > 100 µM | 0.0664 µM | 0.243 µM | > 60.9 µM | 33.2 µM | 0.0546 µM | > 46.4 µM | 0.0531 µM | 22.3 µM | > 58.9 µM | 0.0482 µM | 0.0209 µM | 0.146 µM
9 | Cc1cc(-c2ncc(CC(=O)Nc3ccc(-c4cnccn4)cn3)cc2C)ccn1 | 36.7 µM | > 100 µM | 31.5 µM | 57.8 µM | > 100 µM | 68.7 µM | > 100 µM | > 100 µM | > 100 µM | 25.6 µM | > 100 µM | > 100 µM | 6.69 µM | 29.6 µM | 22.1 µM | > 100 µM | > 100 µM | 19.1 µM | 21.8 µM | 19.2 µM
10 | COc1cc(O)c([C@@H]2C[C@H](CCc3ccc(O)cc3)O[C@H](c3ccc(O)cc3)C2)c(O)c1C(=O)/C=C/c1ccc(O)cc1 | 3.33 µM | 25.1 µM | 2.43 µM | 3.31 µM | 10.2 µM | 1.93 µM | 3.63 µM | 4.61 µM | 10.8 µM | 3.17 µM | 10.5 µM | 4.68 µM | 2.11 µM | 6.05 µM | 2.38 µM | 5.92 µM | 6.01 µM | 1.96 µM | 3.14 µM | 2.11 µM
11 | Nc1nc(SCc2ccccn2)c2ncn(C3CCCC3)c2n1 | – | > 100 µM | – | – | > 100 µM | – | > 100 µM | > 100 µM | > 100 µM | – | > 100 µM | > 100 µM | – | > 100 µM | – | > 100 µM | > 100 µM | – | – | –
